# Test results as given in patent US20240279236A1, “COMPOUNDS AND METHODS OF TREATING TUBERCULOSIS” (Fimbrion Therapeutics, Inc., priority 2021, published 2024).
# System: WT Mtb Erdman strain
# Test: Microplate Alamar Blue Assay (MABA), Mtb growth inhibition
# Format: cell-based, Mycobacterium tuberculosis
# Conditions: Mycobacterium tuberculosis, ERDMAN, 168 h, Middlebrook 7H9 media, 7 days at 37° C. in 5% CO2
row,SMILES,IC50 [nM]
1,"Cc1cc2c(N[C@@H]3C[C@H]3c3ccc(F)c(F)c3)nc(C3CC3)nc2s1 [Example 43, 2-cyclopropyl-N-((1R,2S)-2-(3,4-difluorophenyl)cyclopropyl)-6-methylthieno[2,3-d]pyrimidin-4-amine]",2400
2,"Cc1cc2c(N[C@@H]3C[C@H]3c3ccc(F)c(F)c3)nc(-c3cccnc3)nc2s1 [Example 44, N-((1R,2S)-2-(3,4-difluorophenyl)cyclopropyl)-6-methyl-2-(pyridin-3-yl)thieno[2,3-d]pyrimidin-4-amine]",6300
3,"Fc1ccc([C@@H]2C[C@H]2Nc2nc(-c3ccccn3)nc3sc(C(F)(F)F)cc23)cc1F [Example 45, N-((1R,2S)-2-(3,4-difluorophenyl)cyclopropyl)-2-(pyridin-2-yl)-6-(trifluoromethyl)thieno [2,3-d]pyrimidin-4-amine]",2800
4,"Cc1cc2c(N[C@@H]3C[C@H]3c3ccc(F)c(F)c3)nc(-c3ccc(F)cn3)nc2s1 [Example 46, N-((1R,2S)-2-(3,4-difluorophenyl)cyclopropyl)-2-(5-fluoropyridin-2-yl)-6-methylthieno[2,3-d]pyrimidin-4-amine]",2200
5,"Cc1cc2c(N[C@@H]3C[C@H]3c3ccc(F)c(F)c3)nc(-c3ccncc3)nc2s1 [Example 47, N-((1R,2S)-2-(3,4-difluorophenyl)cyclopropyl)-6-methyl-2-(pyridin-4-yl)thieno[2,3-d]pyrimidin-4-amine]",> 8800
6,"Cc1cc2c(NCCCc3ccc(C(F)(F)F)cc3)nc(C(F)(F)F)nc2s1 [Example 48, 6-methyl-2-(trifluoromethyl)-N-(3-(4-(trifluoromethyl)phenyl)propyl)thieno[2,3-d] pyrimidin-4-amine]",2600
7,"COc1ccc(CCCNc2nc(C(F)(F)F)nc3sc(C)cc23)cc1 [Example 49, N-(3-(4-methoxyphenyl)propyl)-6-methyl-2-(trifluoromethyl)thieno [2,3-d]pyrimidin-4-amine]",2000
8,"Cc1cc2c(N[C@@H]3C[C@H]3c3ccc(F)c(F)c3)nc(C(C)(F)F)nc2s1 [Example 50, 2-(1,1-difluoroethyl)-N-((1R,2S)-2-(3,4-difluorophenyl)cyclopropyl)-6-methylthieno[2,3-d]pyrimidin-4-amine]",1100
9,"Cc1cc2c(NCCCc3ccccc3)nc(C(C)(C)C)nc2s1 [Example 51, 2-(tert-butyl)-6-methyl-N-(3-phenylpropyl)thieno [2,3-d]pyrimidin-4-amine]",> 10000
10,"CCCc1nc(N[C@@H]2C[C@H]2c2ccc(F)c(F)c2)c2cc(C)sc2n1 [Example 52, N-((1R,2S)-2-(3,4-difluorophenyl)cyclopropyl)-6-methyl-2-propylthieno[2,3-d]pyrimidin-4-amine]",810
11,"CSc1nc(N[C@@H]2C[C@H]2c2ccc(F)c(F)c2)c2cc(C)sc2n1 [Example 53, N-((1R,2S)-2-(3,4-difluorophenyl)cyclopropyl)-6-methyl-2-(methylthio)thieno[2,3-d]pyrimidin-4-amine]",240
12,"CCCc1nc(NCCCc2ccccc2)c2cc(C)sc2n1 [Example 54, 6-methyl-N-(3-phenylpropyl)-2-propylthieno[2,3-d]pyrimidin-4-amine]",310
13,"CSc1nc(NCCCc2ccccc2)c2cc(C)sc2n1 [Example 55, 6-methyl-2-(methylthio)-N-(3-phenylpropyl)thieno [2,3-d]pyrimidin-4-amine]",17
14,"Cc1cc2c(N[C@@H]3C[C@H]3c3ccc(F)c(F)c3)nc(-c3ccc(F)cc3)nc2s1 [Example 56, N-((1R,2S)-2-(3,4-difluorophenyl)cyclopropyl)-2-(4-fluorophenyl)-6-methylthieno[2,3-d]pyrimidin-4-amine]",4200
15,"Cc1cc2c(NCCCc3ccccc3)nc(-c3ncco3)nc2s1 [Example 57, 6-methyl-2-(oxazol-2-yl)-N-(3-phenylpropyl)thieno [2,3-d]pyrimidin-4-amine]",4100
16,"Cc1cc2c(NCCCc3ccccc3)nc(C3(N)CC3)nc2s1 [Example 58, 2-(1-aminocyclopropyl)-6-methyl-N-(3-phenylpropyl)thieno [2,3-d]pyrimidin-4-amine]",5000
17,"CCc1nc(NCCCc2ccc(F)c(F)c2)c2cc(C)sc2n1 [Example 59, N-(3-(3,4-difluorophenyl)propyl)-2-ethyl-6-methylthieno[2,3-d]pyrimidin-4-amine]",430
18,"Cc1cc2c(NCCCc3ccc(F)c(F)c3)nc(C(F)(F)F)nc2s1 [Example 60, N-(3-(3,4-difluorophenyl)propyl)-6-methyl-2-(trifluoromethyl)thieno [2,3-d]pyrimidin-4-amine]",4900
19,"CCc1nc(NC/C=C/c2ccccc2)c2cc(C)sc2n1 [Example 61, N-cinnamyl-2-ethyl-6-methylthieno[2,3-d]pyrimidin-4-amine]",70
20,"CCc1nc(NCCNc2ccccc2)c2cc(C)sc2n1 [Example 62, N1-(2-ethyl-6-methylthieno[2,3-d]pyrimidin-4-yl)-N2-phenylethane-1,2-diamine]",810
21,"Cc1cc2c(NCCCc3ccccc3)nc(-c3cccs3)nc2s1 [Example 63, 6-methyl-N-(3-phenylpropyl)-2-(thiophen-2-yl)thieno[2,3-d]pyrimidin-4-amine]",1900
22,"CCc1nc(NCCCOc2ccccc2)c2cc(C)sc2n1 [Example 64, 2-ethyl-6-methyl-N-(3-phenoxypropyl)thieno [2,3-d]pyrimidin-4-amine]",1700

row,SMILES,IC50 [nM]
1,"CCc1nc(NCCOc2ccc(Br)cc2)c2cc(C)sc2n1 [Example 65, N-(2-(4-bromophenoxy)ethyl)-2-ethyl-6-methylthieno[2,3-d]pyrimidin-4-amine]",2800
2,"CCc1nc(NCCC(C)(C)c2ccccc2)c2cc(C)sc2n1 [Example 66, 2-ethyl-6-methyl-N-(3-methyl-3-phenylbutyl)thieno [2,3-d]pyrimidin-4-amine]",6000
3,"CCc1nc(NCCc2ccc(O)cc2)c2cc(C)sc2n1 [Example 67, 4-(2-((2-ethyl-6-methylthieno[2,3-d]pyrimidin-4-yl)amino)ethyl)phenol]",> 10000
4,"CCc1nc(NCCS(=O)(=O)c2ccccc2)c2cc(C)sc2n1 [Example 68, 2-ethyl-6-methyl-N-(2-(phenylsulfonyl)ethyl) thieno[2,3-d]pyrimidin-4-amine]",> 10000
5,"CCc1nc(NCCCOc2ccc(Cl)cc2)c2cc(C)sc2n1 [Example 69, N-(3-(4-chlorophenoxy)propyl)-2-ethyl-6-methylthieno[2,3-d]pyrimidin-4-amine]",1100
6,"CCc1nc(NCCCc2ccc(O)cc2)c2cc(C)sc2n1 [Example 70, 4-(3-((2-ethyl-6-methylthieno[2,3-d]pyrimidin-4-yl)amino)propyl) phenol]",230
7,"CSc1nc(NCCCOc2ccc(Cl)cc2)c2cc(C)sc2n1 [Example 71, N-(3-(4-chlorophenoxy)propyl)-6-methyl-2-(methylthio)thieno[2,3-d]pyrimidin-4-amine]",350
8,"Cc1cc2c(NCCCOc3ccc(Cl)cc3)nc(C(F)(F)F)nc2s1 [Example 72, N-(3-(4-chlorophenoxy)propyl)-6-methyl-2-(trifluoromethyl)thieno [2,3-d]pyrimidin-4-amine]",3900
9,"Cc1cc2c(NCCCc3ccccc3)nc(C(C)(C)N)nc2s1 [Example 73, 2-(2-aminopropan-2-yl)-6-methyl-N-(3-phenylpropyl)thieno [2,3-d]pyrimidin-4-amine]",> 10000
10,"Cc1cc2c(NCCCc3ccccc3)nc(CS(C)(=O)=O)nc2s1 [Example 74, 6-methyl-2-((methylsulfonyl)methyl)-N-(3-phenylpropyl)thieno [2,3-d]pyrimidin-4-amine]",> 10000
11,"CSCc1nc(NCCCc2ccccc2)c2cc(C)sc2n1 [Example 75, 6-methyl-2-((methylthio)methyl)-N-(3-phenylpropyl)thieno [2,3-d]pyrimidin-4-amine]",2000
12,"CCSc1nc(NCCCc2ccccc2)c2cc(C)sc2n1 [Example 76, 2-(ethylthio)-6-methyl-N-(3-phenylpropyl)thieno [2,3-d]pyrimidin-4-amine]",92
13,"Cc1cc2c(NCCCc3ccccc3)nc(N(C)C)nc2s1 [Example 77, N2,N2,6-trimethyl-N4-(3-phenylpropyl)thieno [2,3-d]pyrimidine-2,4-diamine]",140
14,"Cc1cc2c(NCCCc3ccccc3)nc(-c3ccncn3)nc2s1 [Example 78, 6-methyl-N-(3-phenylpropyl)-2-(pyrimidin-4-yl)thieno[2,3-d]pyrimidin-4-amine]",160
15,"Cc1cc2c(NCCCc3ccc(OC(F)(F)F)cc3)nc(-c3ccncn3)nc2s1 [Example 79, 6-methyl-2-(pyrimidin-4-yl)-N-(3-(4-(trifluoromethoxy)phenyl)propyl)thieno [2,3-d]pyrimidin-4-amine]",480
16,"CCc1nc(NCCCNc2ccccc2)c2cc(C)sc2n1 [Example 80, N1-(2-ethyl-6-methylthieno[2,3-d]pyrimidin-4-yl)-N3-phenylpropane-1,3-diamine]",470
17,"COCc1nc(NCCCc2ccccc2)c2cc(C)sc2n1 [Example 81, 2-(methoxymethyl)-6-methyl-N-(3-phenylpropyl)thieno [2,3-d]pyrimidin-4-amine]",3000
18,"Cc1cc2c(NCCCc3ccc(OC(F)(F)F)cc3)nc(-c3ccc(F)cc3)nc2s1 [Example 82, 2-(4-fluorophenyl)-6-methyl-N-(3-(4-(trifluoromethoxy)phenyl)propyl)thieno[2,3-d]pyrimidin-4-amine]",1100
19,"Cc1cc2c(NCCCc3ccc(O)cc3)nc(-c3ccc(F)cc3)nc2s1 [Example 83, 4-(3-((2-(4-fluorophenyl)-6-methylthieno[2,3-d]pyrimidin-4-yl)amino)propyl) phenol]",2500
20,"Fc1ccc(-c2nc(N[C@@H]3C[C@H]3c3ccc(F)c(F)c3)c3cc(C(F)(F)F)sc3n2)cc1 [Example 85, N-((1R,2S)-2-(3,4-difluorophenyl)cyclopropyl)-2-(4-fluorophenyl)-6-(trifluoromethyl)thieno [2,3-d]pyrimidin-4-amine]",> 6800
21,"CCc1nc(NCCCc2ccccc2)c2cc(CC)sc2n1 [Example 86, 2,6-diethyl-N-(3-phenylpropyl)thieno [2,3-d]pyrimidin-4-amine]",> 1200
